Experimental data taken from US12378268B2, “Heterocyclic THR-β receptor agonist compound and preparation method and use therefor” (Hepagene Therapeutics (HK) Limited, priority 2019, dated 2025).

What was measured:
THR-β = biological target: T1, THR-β (Homo sapiens, UniProt P10828); experiment: Test of the binding ability of the compound to TRβ (TRβ LBD/RXR, biotin-SRC2-2 co-activating peptide, 665/615 nm fluorescence ratio); type: biochemical; details: for Emax: activity relative to positive control; for α/β selectivity (multiple): calculated after being standardized with T3
T1 construct: TRB LBD, GST purchased from Thermo Fisher; purchased Thermo Fisher PV4762
Method: 1. Main experimental materials and instruments:
Biotin-SRC2-2 co-activating peptide purchased from Sangon Biotech (Shanghai) Co., Ltd.
TRB LBD, GST purchased from Thermo Fisher (product No. PV4762)
Europium-conjugated anti-glutathione antibody purchased from Cisbio (product No. 61GSTKLB)
Streptavidin-D2 purchased from Cisbio (product No. 610SADAB)
(§1) 4.2 The activity percentage was calculated as follows: […]
(§2) RatioCompound: Average of the relative ratios of the compound wells of the embodiments
(§3) RatioPositive: Average of the relative ratios of all positive control wells.
(§4) RatioBlank: Average of the relative ratios of all negative control wells.
(§5) EC50 was calculated by fitting the relationship between activity (%) and compound logarithmic concentration with Graphpad 5.0 by a nonlinear regression method.
(§6) Y=Bottom+ (top-bottom)/(1+10^((LogEC50−X)*slope))
(§7) X: Compound logarithmic concentration Y: Percentage activity

THR-α = biological target: T2, THR-α (Homo sapiens, UniProt P10827); experiment: Test of the binding ability of the compound to TRα (TRα LBD/RXRα, biotin-SRC2-2 co-activating peptide, 665/615 nm fluorescence ratio); type: biochemical; details: for Emax: activity relative to positive control
T2 construct: TR-a LBD, GST purchased from Thermo Fisher; purchased Thermo Fisher PV4762
Method: as §1, §2, §3, §4, §5, §6, §7

T1 sequence (P10828 217-461 limits assumed, other chains not shown): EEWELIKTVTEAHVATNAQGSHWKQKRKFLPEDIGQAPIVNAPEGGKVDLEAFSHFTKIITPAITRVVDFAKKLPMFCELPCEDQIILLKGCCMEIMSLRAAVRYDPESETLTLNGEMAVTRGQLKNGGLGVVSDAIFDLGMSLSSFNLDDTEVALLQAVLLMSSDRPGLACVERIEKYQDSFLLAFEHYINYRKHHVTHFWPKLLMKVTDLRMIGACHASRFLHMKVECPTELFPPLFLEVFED
T1 sequence (P28702 whole entry partner, other chains not shown, the tested form may be a part): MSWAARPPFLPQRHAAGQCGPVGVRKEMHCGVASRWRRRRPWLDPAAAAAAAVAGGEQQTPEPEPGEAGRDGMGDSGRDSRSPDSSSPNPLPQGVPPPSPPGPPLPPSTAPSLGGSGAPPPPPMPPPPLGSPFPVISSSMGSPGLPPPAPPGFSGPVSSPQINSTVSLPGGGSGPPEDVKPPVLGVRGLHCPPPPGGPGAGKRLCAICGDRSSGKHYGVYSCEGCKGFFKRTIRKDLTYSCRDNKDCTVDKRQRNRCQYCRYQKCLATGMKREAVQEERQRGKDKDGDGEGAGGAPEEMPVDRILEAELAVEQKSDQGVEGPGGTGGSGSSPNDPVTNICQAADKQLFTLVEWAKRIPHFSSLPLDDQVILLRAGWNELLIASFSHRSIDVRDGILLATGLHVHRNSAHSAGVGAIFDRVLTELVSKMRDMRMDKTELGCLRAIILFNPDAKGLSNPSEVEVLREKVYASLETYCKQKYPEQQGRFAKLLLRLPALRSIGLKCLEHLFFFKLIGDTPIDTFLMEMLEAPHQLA
T2 sequence (P10827 163-410 isoform P10827-2 limits assumed, other chains not shown): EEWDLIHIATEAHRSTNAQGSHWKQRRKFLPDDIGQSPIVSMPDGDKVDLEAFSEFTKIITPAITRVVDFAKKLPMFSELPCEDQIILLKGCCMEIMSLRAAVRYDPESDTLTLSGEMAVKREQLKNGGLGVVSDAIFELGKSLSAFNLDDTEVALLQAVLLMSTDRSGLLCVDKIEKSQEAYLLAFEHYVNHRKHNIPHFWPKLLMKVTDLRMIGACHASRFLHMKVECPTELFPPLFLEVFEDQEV
T2 sequence (P19793 whole entry partner, other chains not shown, the tested form may be a part): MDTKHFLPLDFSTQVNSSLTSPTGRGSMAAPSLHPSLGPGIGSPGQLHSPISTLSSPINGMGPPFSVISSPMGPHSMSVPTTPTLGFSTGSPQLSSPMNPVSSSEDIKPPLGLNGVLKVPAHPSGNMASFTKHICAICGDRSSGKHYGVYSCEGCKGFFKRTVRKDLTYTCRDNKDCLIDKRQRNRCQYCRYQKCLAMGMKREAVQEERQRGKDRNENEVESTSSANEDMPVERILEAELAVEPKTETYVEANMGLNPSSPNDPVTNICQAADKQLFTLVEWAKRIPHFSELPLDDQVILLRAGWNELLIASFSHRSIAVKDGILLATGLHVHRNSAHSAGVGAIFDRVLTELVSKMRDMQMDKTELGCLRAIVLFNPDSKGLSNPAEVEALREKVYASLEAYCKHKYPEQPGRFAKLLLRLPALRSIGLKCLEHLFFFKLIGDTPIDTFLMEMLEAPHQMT

EC50 (THR-β) | Emax (THR-β) | α/β selectivity (multiple) (THR-β) | EC50 (THR-α) | Emax (THR-α) | SMILES
109 nM | 100% | 4.7 multiple | 280 nM | 106% | Cc1cc(OCP(=O)(O)O)cc(C)c1Cc1ccc(O)c2ccccc12 [A, ((4-((4-hydroxynaphthyl-1-yl)methyl)-3,5-dimethylphenoxy)methyl) phosphoric acid, reference compound]
41 nM | 111% | 11.4 multiple | 230 nM | 106% | Cc1cc(OCP(=O)(O)O)cc(C)c1Cc1ccc(O)c2c1CCCC2 [B, reference compound]
< 100 nM | 104% | – | < 200 nM | 98.3% | Cc1cc(OCP(=O)(O)O)cc(C)c1Cc1ccc(O)c2c1CCC2C (stereo not drawn) [Compound 2]
104 nM | 100% | 4.8 multiple | 270 nM | 105% | Cc1cc(OCP(=O)(O)O)cc(C)c1Cc1ccc(O)c2c1CCCC2(C)C [Compound 3]
> 1000 nM | – | – | > 10000 nM | – | Cc1cc(OCP(=O)(O)O)cc(C)c1Cc1ccc(O)c2c1CCCCC2(C)C [Compound 4, ((4-((4-hydroxy-5,5-dimethyl-6,7,8,9-tetrahydro-5H-benzo[7]annun-1-yl)methyl)-3,5-dimethylphenoxy)methyl) phosphoric acid]
